“Also recorded” adds a separate entry of the source.
Tests used:
[1] = tested on: Salmonella typhimurium TA1537; test: Bacterial reverse mutation (Ames) assay, plate incorporation; format: cell-based
Method: (§1) Pretomanid and metabolite M50 were evaluated over a range of concentrations, with and without an added metabolic activation system, in five tester strains: Salmonella typhimurium histidine auxotrophs TA98, TA100, TA1535, and TA1537 [9] and the Escherichia coli tryptophan auxotroph WP2uvrA. S. typhimurium strains were received from Dr. Bruce Ames, Department of Biochemistry, University of California (Berkeley, CA). The E. coli strain was received from The National Collection of Industrial Bacteria, Torrey Research Station, Aberdeen, Scotland (United Kingdom). The metabolic activation system was a liver homogenate (S9) mix. The S9 component was prepared from male Sprague-Dawley rats that had been injected (intraperitoneally) with Aroclor^TM 1254 at 500 mg/kg, 5 days before sacrifice. The S9 mix was prepared immediately before use and contained 10% S9, 5 mM glucose-6-phosphate, 4 mM β-nicotinamide adenine dinucleotide phosphate, 8 mM MgCl2 and 33 mM KCl in a 100 mM phosphate buffer at pH 7.4. Pretomanid was tested at 0.05 to 5000 μg/plate. Metabolite M50 was tested at 78 to 2500 μg/plate. A negative (solvent) control culture and appropriate positive control cultures were included in each assay.
(§2) Bacteria were exposed to test materials by the plate incorporation method originally described by Ames et al and updated by Maron and Ames. Bottom agar was Vogel-Bonner minimal medium E [12] with 1.5% (w/v) agar, and the top Agar was 0.7% (w/v) agar and 0.5% (w/v) NaCl. After incubation, cultures were evaluated using a dissecting microscope for precipitation or cytotoxicity, and revertant colonies were counted. The mean numbers of revertant colonies in various cultures were compared to reach conclusions about assay validity and mutagenic potential. For the test article to be evaluated positive, it must cause a dose-related increase in the mean revertants per plate of at least one tester strain with a minimum of two increasing concentrations of test article.

[2] = tested on: Salmonella typhimurium TA1535; test: as above; format: cell-based
Method: as §1, §2

[3] = tested on: Salmonella typhimurium TA98; test: as above; format: cell-based
Method: as §1, §2

[4] = tested on: Salmonella typhimurium TA100; test: as above; format: cell-based
Method: as §1, §2

[5] = Toxicokinetic assessment in wild-type CByB6F1 mice (Day 14); format: in vivo; conditions: for Mouse M50 AUC0-24 as multiple of estimated human M50 AUC0-24: highest dose, human 200 mg/day
Method: TK animals were included for the vehicle control (n = 4 sex) and pretomanid-treated groups (n = 10 sex/group). The TK cohort animals were dosed by oral gavage once daily for 14 consecutive days.
Toxicokinetic blood samples (300 μL for males and 250 μL for females) were collected in K3EDTA tubes after 14 doses from the TK cohort via retro-orbital bleeding under 70% CO2/30% O2 anesthesia. On Day 14, control mice were bled once 2 hours after dosing. On Day 14 and 15, Pretomanid-treated mice were bled predose, 0.5, 1, 3, 6, and 24 hours post dose. TK animals were euthanized after their final blood collection.
Collected blood was stored on wet ice until the samples were processed to plasma. Blood samples were centrifuged at 4±2°C and 8000 g for 5 minutes. Plasma was snap frozen in liquid nitrogen and stored in a deep freezer (≤−60°C) within 60 minutes of bleeding the TK animals.
Pretomanid and the M50 metabolite were quantified in mouse plasma by liquid chromatography-tandem mass spectrometry (LC-MS/MS) after protein precipitation. Aliquots of 25 µL of plasma were spiked with internal standards (PA-824-d5 or morphine) and proteins were precipitated in 1% formic acid in acetonitrile. A partial supernatant from each sample was transferred to a clean plate and diluted in acetonitrile/water (40:60) for pretomanid and deionized water for M50. Supernatant was analyzed for pretomanid or M50 using validated LC-MS/MS methods with a linear range of 20 to 10,000 ng/mL for pretomanid and 10 to 5,000 ng/mL for M50 (methods validated at Alliance Pharma, Malvern PA).
Sample collection time and plasma concentration data were analyzed to derive TK parameters by standard model independent methods based on the mean plasma concentration-time data for each dose group. The TK analyses of the plasma concentration profiles were performed using non-compartmental analysis in Phoenix WinNonlin Professional 7.0 (Certara, L.P., St. Louis, MO, USA). Concentration values below the lower limit of quantitation were treated as zeros for analysis purposes.

[6] = tested on: Salmonella typhimurium TA98, TA100, TA1535, TA1537 and Escherichia coli WP2uvrA; test: Bacterial reverse mutation (Ames) assay, overall over five tester strains; format: cell-based; conditions: up to 2500 μg/plate
Method: as §1, §2

Escherichia coli WP2uvrA = test: Bacterial reverse mutation (Ames) assay, plate incorporation
Method: as §1, §2

O=[N+]([O-])c1cn2c(n1)OC[C@@H](O)C2 [M50]
Mean Number of Revertants/Plate ([1]; TA1537 +S9, 78 μg/plate): 9 Revertants/Plate
Mean Number of Revertants/Plate ([1]; TA1537 +S9, 156 μg/plate): 12 Revertants/Plate
Mean Number of Revertants/Plate ([1]; TA1537 +S9, 313 μg/plate): 8 Revertants/Plate
Mean Number of Revertants/Plate ([1]; TA1537 +S9, 625 μg/plate): 14 Revertants/Plate
Mean Number of Revertants/Plate ([1]; TA1537 +S9, 1250 μg/plate): 20 Revertants/Plate
Mean Number of Revertants/Plate ([1]; TA1537 +S9, 2500 μg/plate): 11 Revertants/Plate
Change in revertant colonies ([1]; TA1537, absence of S9): significant increases
Mean Number of Revertants/Plate ([1]; TA1537 −S9, 78 μg/plate): 8 Revertants/Plate
Mean Number of Revertants/Plate ([1]; TA1537 −S9, 156 μg/plate): 13 Revertants/Plate
Mean Number of Revertants/Plate ([1]; TA1537 −S9, 313 μg/plate): 7 Revertants/Plate
Mean Number of Revertants/Plate ([1]; TA1537 −S9, 625 μg/plate): 13 Revertants/Plate
Mean Number of Revertants/Plate ([1]; TA1537 −S9, 1250 μg/plate): 10 Revertants/Plate
Mean Number of Revertants/Plate ([1]; TA1537 −S9, 2500 μg/plate): 18 Revertants/Plate
Mean Number of Revertants/Plate ([2]; TA1535 +S9, 78 μg/plate): 12 Revertants/Plate
Mean Number of Revertants/Plate ([2]; TA1535 +S9, 156 μg/plate): 15 Revertants/Plate
Mean Number of Revertants/Plate ([2]; TA1535 +S9, 313 μg/plate): 31 Revertants/Plate
Mean Number of Revertants/Plate ([2]; TA1535 +S9, 625 μg/plate): 42 Revertants/Plate
Mean Number of Revertants/Plate ([2]; TA1535 +S9, 1250 μg/plate): 67 Revertants/Plate
Mean Number of Revertants/Plate ([2]; TA1535 +S9, 2500 μg/plate): 81 Revertants/Plate
Change in revertant colonies ([2]; TA1535, presence and absence of S9): significant increases
Mean Number of Revertants/Plate ([2]; TA1535 −S9, 78 μg/plate): 20 Revertants/Plate
Mean Number of Revertants/Plate ([2]; TA1535 −S9, 156 μg/plate): 16 Revertants/Plate
Mean Number of Revertants/Plate ([2]; TA1535 −S9, 313 μg/plate): 19 Revertants/Plate
Mean Number of Revertants/Plate ([2]; TA1535 −S9, 625 μg/plate): 24 Revertants/Plate
Mean Number of Revertants/Plate ([2]; TA1535 −S9, 1250 μg/plate): 43 Revertants/Plate
Mean Number of Revertants/Plate ([2]; TA1535 −S9, 2500 μg/plate): 60 Revertants/Plate
Mean Number of Revertants/Plate ([3]; TA98 +S9, 78 μg/plate): 18 Revertants/Plate
Mean Number of Revertants/Plate ([3]; TA98 +S9, 156 μg/plate): 19 Revertants/Plate
Mean Number of Revertants/Plate ([3]; TA98 +S9, 313 μg/plate): 22 Revertants/Plate
Mean Number of Revertants/Plate ([3]; TA98 +S9, 625 μg/plate): 25 Revertants/Plate
Mean Number of Revertants/Plate ([3]; TA98 +S9, 1250 μg/plate): 24 Revertants/Plate
Mean Number of Revertants/Plate ([3]; TA98 +S9, 2500 μg/plate): 38 Revertants/Plate
Change in revertant colonies ([3]; TA98, presence of S9): significant increases
Mean Number of Revertants/Plate ([3]; TA98 −S9, 78 μg/plate): 13 Revertants/Plate
Mean Number of Revertants/Plate ([3]; TA98 −S9, 156 μg/plate): 16 Revertants/Plate
Mean Number of Revertants/Plate ([3]; TA98 −S9, 313 μg/plate): 14 Revertants/Plate
Mean Number of Revertants/Plate ([3]; TA98 −S9, 625 μg/plate): 17 Revertants/Plate
Mean Number of Revertants/Plate ([3]; TA98 −S9, 1250 μg/plate): 21 Revertants/Plate
Mean Number of Revertants/Plate ([3]; TA98 −S9, 2500 μg/plate): 33 Revertants/Plate
Mean Number of Revertants/Plate ([4]; TA100 +S9, 78 μg/plate): 132 Revertants/Plate
Mean Number of Revertants/Plate ([4]; TA100 +S9, 156 μg/plate): 125 Revertants/Plate
Mean Number of Revertants/Plate ([4]; TA100 +S9, 313 μg/plate): 252 Revertants/Plate
Mean Number of Revertants/Plate ([4]; TA100 +S9, 625 μg/plate): 312 Revertants/Plate
Mean Number of Revertants/Plate ([4]; TA100 +S9, 1250 μg/plate): 666 Revertants/Plate
Mean Number of Revertants/Plate ([4]; TA100 +S9, 2500 μg/plate): 758 Revertants/Plate
Change in revertant colonies ([4]; TA100, presence and absence of S9): significant increases
Mean Number of Revertants/Plate ([4]; TA100 −S9, 78 μg/plate): 120 Revertants/Plate
Mean Number of Revertants/Plate ([4]; TA100 −S9, 156 μg/plate): 135 Revertants/Plate
Mean Number of Revertants/Plate ([4]; TA100 −S9, 313 μg/plate): 203 Revertants/Plate
Mean Number of Revertants/Plate ([4]; TA100 −S9, 625 μg/plate): 294 Revertants/Plate
Mean Number of Revertants/Plate ([4]; TA100 −S9, 1250 μg/plate): 588 Revertants/Plate
Mean Number of Revertants/Plate ([4]; TA100 −S9, 2500 μg/plate): 868 Revertants/Plate
Exposure to M50 metabolite relative to pretomanid ([5]; all dose levels, both sexes): less than 10%
AUC(0-t) ([5]; female, CByB6F1 (wild-type), mouse, plasma, oral, 80 mg/kg/day, females, highest dose in the carcinogenicity study, read-out: Mean M50 AUC0-24): 10200 ng·h/mL
Mouse M50 AUC0-24 as multiple of estimated human M50 AUC0-24 ([5]; females): approximately 3 X
Mean M50 AUC0-24 ([5]; males, highest dose in the carcinogenicity study): 4600 ng·h/mL
Mouse M50 AUC0-24 as multiple of estimated human M50 AUC0-24 ([5]; males): approximately 1.5 X
Precipitate or cytotoxicity in the Ames assay ([6]; single non-GLP assay): no precipitate or cytotoxicity at any concentration
Mutagenic potential ([6]; with and without S9, non-GLP): genotoxic; also recorded: positive
Mean Number of Revertants/Plate (Escherichia coli WP2uvrA; WP2uvrA +S9, 78 μg/plate): 18 Revertants/Plate
Mean Number of Revertants/Plate (Escherichia coli WP2uvrA; WP2uvrA +S9, 156 μg/plate): 17 Revertants/Plate
Mean Number of Revertants/Plate (Escherichia coli WP2uvrA; WP2uvrA +S9, 313 μg/plate): 23 Revertants/Plate
Mean Number of Revertants/Plate (Escherichia coli WP2uvrA; WP2uvrA +S9, 625 μg/plate): 48 Revertants/Plate
Mean Number of Revertants/Plate (Escherichia coli WP2uvrA; WP2uvrA +S9, 1250 μg/plate): 50 Revertants/Plate
Mean Number of Revertants/Plate (Escherichia coli WP2uvrA; WP2uvrA +S9, 2500 μg/plate): 50 Revertants/Plate
Mean Number of Revertants/Plate (Escherichia coli WP2uvrA; WP2uvrA −S9, 78 μg/plate): 18 Revertants/Plate
Mean Number of Revertants/Plate (Escherichia coli WP2uvrA; WP2uvrA −S9, 156 μg/plate): 24 Revertants/Plate
Mean Number of Revertants/Plate (Escherichia coli WP2uvrA; WP2uvrA −S9, 313 μg/plate): 26 Revertants/Plate
Mean Number of Revertants/Plate (Escherichia coli WP2uvrA; WP2uvrA −S9, 625 μg/plate): 29 Revertants/Plate
Mean Number of Revertants/Plate (Escherichia coli WP2uvrA; WP2uvrA −S9, 1250 μg/plate): 49 Revertants/Plate
Mean Number of Revertants/Plate (Escherichia coli WP2uvrA; WP2uvrA −S9, 2500 μg/plate): 71 Revertants/Plate
Change in revertant colonies (Escherichia coli WP2uvrA; WP2uvrA, presence and absence of S9): significant increases
